Results published in patent US20150105252A1, “SUBSTITUTED PYRAZOLES AS HERBICIDES” (E I DU PONT DE NEMOURS AND COMPANY, priority 2013, published 2015).

Tests used:
johnsongrass = experiment: Test E preemergence; assay type: in vivo, Sorghum halepense; details: 21 days, scale 0 to 100
Text: (§1) Seeds of plant species selected from bermudagrass (Cynodon dactylon), Surinam grass (Brachiaria decumbens), crabgrass, large (large crabgrass, Digitaria sanguinalis), crabgrass, naked (naked crabgrass, Digitaria nuda), foxtail, green (green foxtail, Setaria viridis), johnsongrass (Sorghum halepense), kochia (Kochia scoparia), morningglory (pitted morningglory, Ipomoea lacunosa), nutsedge, purple (purple nutsedge, Cyperus rotundus), ragweed (common ragweed, Ambrosia elation), mustard, black (black mustard, Brassica nigra), guineagrass (Panicum maximum), dallisgrass (Paspalum dilatatum), barnyardgrass (Echinochloa crus-galli), sandbur (southern sandbur, Cenchrus echinatus), sowthistle (common sowthistle, Sonchus oleraceous), ryegrass, Italian (Italian ryegrass, Lolium multiflorum), signalgrass (broadleaf signalgrass, Brachiaria platyphylla), dayflower, VA (Virginia (VA) dayflower, Commelina virginica), bluegrass (annual bluegrass, Poa annua), quackgrass (Elytrigia repens), mallow (common mallow, Malva sylvestris), buckwheat, wild (wild buckwheat, Polygonum convolvulus), leafy spurge (Euphorbia esula), common chickweed (Stellaria media), wild poinsettia (Euphorbia heterophylla), pigweed, palmer (palmer pigweed, Amaranthus palmeri), and pigweed (redroot pigweed, Amaranthus retroflexus) were planted into a blend of loam soil and sand and treated preemergence with test chemicals formulated in a non-phytotoxic solvent mixture which included a surfactant.
(§2) Treated plants and controls were maintained in a greenhouse for 21 days, after which time all species were compared to controls and visually evaluated. Plant response ratings, summarized in Table E, are based on a scale of 0 to 100 where 0 is no effect and 100 is complete control. A dash (-) response means no test result.

guineagrass = experiment: Test E preemergence; assay type: in vivo, Panicum maximum; details: 21 days, scale 0 to 100
Text: as §1, §2

sowthistle = experiment: Test E preemergence; assay type: in vivo, Sonchus oleraceous; details: 21 days, scale 0 to 100
Text: as §1, §2

dayflower, VA = experiment: Test E preemergence; assay type: in vivo, Commelina virginica; details: 21 days, scale 0 to 100
Text: as §1, §2

mallow = experiment: Test E preemergence; assay type: in vivo, Malva sylvestris; details: 21 days, scale 0 to 100
Text: as §1, §2

common chickweed = experiment: Test E preemergence; assay type: in vivo, Stellaria media; details: 21 days, scale 0 to 100
Text: as §1, §2

barnyardgrass = experiment: Test F postemergence; assay type: in vivo, Echinochloa crus-galli; details: scale 0 to 100
Text: (§3) Seeds of plant species selected from corn (Zea mays), soybean (Glycine max), velvetleaf (Abutilon theophrasti), lambsquarters (Chenopodium album), wild poinsettia (Euphorbia heterophylla), pigweed, palmer (palmer pigweed, Amaranthus palmeri), common waterhemp (Amaranthus rudis), surinam grass (Brachiaria decumbens), large crabgrass (Digitaria sanguinalis), crabgrass, Brazil (Brazilian crabgrass, Digitaria horizontalis), fall panicum (Panicum dichotomiflorum), giant foxtail (Setaria faberii), green foxtail (Setaria viridis), goosegrass (Eleusine indica), johnsongrass (Sorghum halepense), common ragweed (Ambrosia elation), barnyardgrass (Echinochloa crus-galli), southern sandbur (Cenchrus echinatus), arrowleaf sida (Sida rhombifolia), Italian ryegrass (Lolium multiflorum), dayflower, VA (Virginia (VA) dayflower, Commelina virginica), field bindweed (Convolvulus arvensis), cocklebur (common cocklebur, Xanthium strumarium), morningglory (Ipomoea coccinea), nightshade (eastern black nightshade, Solanum ptycanthum), kochia (Kochia scoparia), yellow nutsedge (Cyperus esculentus), and hairy beggarticks (Bidens pilosa), were planted into a silt loam soil and treated preemergence with test chemicals formulated in a non-phytotoxic solvent mixture which included a surfactant.
(§4) At the same time, plants from these crop and weed species and also horseweed (Canada horseweed, Conyza canadensis), smartweed (ladysthumb smartweed, Polygonum persicaria), waterhemp_RES1, (ALS & Triazine resistant common waterhemp, Amaranthus rudis), and waterhemp_RES2, (ALS & HPPD resistant common waterhemp, Amaranthus rudis) were treated with postemergence applications of test chemicals formulated in the same manner. Plants ranged in height from 2 to 18 cm for postemergence treatments (1- to 4-leaf stage). Treated plants and controls were maintained in a greenhouse for 14 to 21 days, after which time all species were compared to controls and visually evaluated. Plant response ratings, summarized in Table F, are based on a scale of 0 to 100 where 0 is no effect and 100 is complete control. A dash (-) response means no test result.

arrowleaf sida = experiment: Test F postemergence; assay type: in vivo, Sida rhombifolia; details: scale 0 to 100
Text: as §3, §4

Italian ryegrass = experiment: Test F postemergence; assay type: in vivo, Lolium multiflorum; details: scale 0 to 100
How it was run: (§5)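 Visual injury was scored from 0 (none) to 100 (complete control) relative to untreated controls after 14–21 days in a greenhouse. Before that, formulated compound (solvent plus surfactant) was sprayed either on silt-loam soil right after sowing or on emerged plants at the 1–4-leaf stage, 2–18 cm tall.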

hairy beggarticks = experiment: Test F postemergence; assay type: in vivo, Bidens pilosa; details: scale 0 to 100
How it was run: as §5

common waterhemp = experiment: Test F postemergence; assay type: in vivo, Amaranthus rudis; details: scale 0 to 100
How it was run: as §5

[1] = test system: waterhemp_RES1 (ALS & Triazine resistant common waterhemp); experiment: Test F postemergence; assay type: in vivo, Amaranthus rudis; details: scale 0 to 100
How it was run: as §5

[2] = test system: waterhemp_RES2 (ALS & HPPD resistant common waterhemp); experiment: Test F postemergence; assay type: in vivo, Amaranthus rudis; details: scale 0 to 100
How it was run: as §5

CCCc1cc(C(=O)NCC(F)(F)F)nn1Cc1ccnc(C(F)(F)F)c1 [Compound 105]
Plant response rating, Johnsongrass (johnsongrass; 16 g ai/ha): 35
Plant response rating, Johnsongrass (johnsongrass; 31 g ai/ha): 80
Plant response rating, Johnsongrass (johnsongrass; 62 g ai/ha): 98
Plant response rating, Johnsongrass (johnsongrass; 125 g ai/ha): 98
Plant response rating, Johnsongrass (johnsongrass; 250 g ai/ha): 100
Plant response rating, Guineagrass (guineagrass; 16 g ai/ha): 75
Plant response rating, Guineagrass (guineagrass; 31 g ai/ha): 90
Plant response rating, Guineagrass (guineagrass; 62 g ai/ha): 100
Plant response rating, Guineagrass (guineagrass; 125 g ai/ha): 100
Plant response rating, Guineagrass (guineagrass; 250 g ai/ha): 100
Plant response rating, Sowthistle (sowthistle; 16 g ai/ha): 100
Plant response rating, Sowthistle (sowthistle; 31 g ai/ha): 100
Plant response rating, Sowthistle (sowthistle; 62 g ai/ha): 100
Plant response rating, Sowthistle (sowthistle; 125 g ai/ha): 100
Plant response rating, Sowthistle (sowthistle; 250 g ai/ha): 100
Plant response rating, Dayflower, VA (dayflower, VA; 16 g ai/ha): 35
Plant response rating, Dayflower, VA (dayflower, VA; 31 g ai/ha): 75
Plant response rating, Dayflower, VA (dayflower, VA; 62 g ai/ha): 95
Plant response rating, Dayflower, VA (dayflower, VA; 125 g ai/ha): 95
Plant response rating, Dayflower, VA (dayflower, VA; 250 g ai/ha): 100
Plant response rating, Mallow (mallow; 16 g ai/ha): 100
Plant response rating, Mallow (mallow; 31 g ai/ha): 100
Plant response rating, Mallow (mallow; 62 g ai/ha): 100
Plant response rating, Mallow (mallow; 125 g ai/ha): 100
Plant response rating, Mallow (mallow; 250 g ai/ha): 100
Plant response rating, Common Chickweed (common chickweed; 16 g ai/ha): 98
Plant response rating, Common Chickweed (common chickweed; 31 g ai/ha): 100
Plant response rating, Common Chickweed (common chickweed; 62 g ai/ha): 100
Plant response rating, Common Chickweed (common chickweed; 125 g ai/ha): 100
Plant response rating, Common Chickweed (common chickweed; 250 g ai/ha): 100
Plant response rating, Barnyardgrass (barnyardgrass; Postemergence, 31 g ai/ha): 10
Plant response rating, Barnyardgrass (barnyardgrass; Postemergence, 125 g ai/ha): 15
Plant response rating, Barnyardgrass (barnyardgrass; Postemergence, 250 g ai/ha): 60
Plant response rating, Barnyardgrass (barnyardgrass; postemergence, 62 g ai/ha): 5
Plant response rating, Barnyardgrass (barnyardgrass; postemergence, 500 g ai/ha): 90
Plant response rating, Arrowleaf Sida (arrowleaf sida; Postemergence, 31 g ai/ha): 40
Plant response rating, Arrowleaf Sida (arrowleaf sida; Postemergence, 125 g ai/ha): 60
Plant response rating, Arrowleaf Sida (arrowleaf sida; Postemergence, 250 g ai/ha): 80
Plant response rating, Arrowleaf Sida (arrowleaf sida; postemergence, 62 g ai/ha): 50
Plant response rating, Arrowleaf Sida (arrowleaf sida; postemergence, 500 g ai/ha): 90
Plant response rating, Italian Ryegrass (Italian ryegrass; Postemergence, 31 g ai/ha): 0
Plant response rating, Italian Ryegrass (Italian ryegrass; Postemergence, 125 g ai/ha): 30
Plant response rating, Italian Ryegrass (Italian ryegrass; Postemergence, 250 g ai/ha): 65
Plant response rating, Italian Ryegrass (Italian ryegrass; postemergence, 62 g ai/ha): 15
Plant response rating, Italian Ryegrass (Italian ryegrass; postemergence, 500 g ai/ha): 90
Plant response rating, Hairy Beggarticks (hairy beggarticks; Postemergence, 31 g ai/ha): 40
Plant response rating, Hairy Beggarticks (hairy beggarticks; Postemergence, 125 g ai/ha): 50
Plant response rating, Hairy Beggarticks (hairy beggarticks; Postemergence, 250 g ai/ha): 70
Plant response rating, Hairy Beggarticks (hairy beggarticks; postemergence, 62 g ai/ha): 50
Plant response rating, Hairy Beggarticks (hairy beggarticks; postemergence, 500 g ai/ha): 85
Plant response rating, Common Waterhemp (common waterhemp; Postemergence, 31 g ai/ha): 65
Plant response rating, Common Waterhemp (common waterhemp; Postemergence, 125 g ai/ha): 65
Plant response rating, Common Waterhemp (common waterhemp; Postemergence, 250 g ai/ha): 75
Plant response rating, Common Waterhemp (common waterhemp; postemergence, 62 g ai/ha): 60
Plant response rating, Common Waterhemp (common waterhemp; postemergence, 500 g ai/ha): 80
Plant response rating, Waterhemp_RES1 ([1]; Postemergence, 31 g ai/ha): 70
Plant response rating, Waterhemp_RES1 ([1]; Postemergence, 125 g ai/ha): 75
Plant response rating, Waterhemp_RES1 ([1]; Postemergence, 250 g ai/ha): 90
Plant response rating, Waterhemp_RES1 ([1]; postemergence, 62 g ai/ha): 70
Plant response rating, Waterhemp_RES1 ([1]; postemergence, 500 g ai/ha): 95
Plant response rating, Waterhemp_RES2 ([2]; Postemergence, 31 g ai/ha): 60
Plant response rating, Waterhemp_RES2 ([2]; Postemergence, 125 g ai/ha): 75
Plant response rating, Waterhemp_RES2 ([2]; Postemergence, 250 g ai/ha): 85
Plant response rating, Waterhemp_RES2 ([2]; postemergence, 62 g ai/ha): 70
Plant response rating, Waterhemp_RES2 ([2]; postemergence, 500 g ai/ha): 95
